Legend:
late watergrass = experiment: Test Example 1: herbicidal activity, application before weed generation under submerged conditions (Table 16, symbol A); assay type: in vivo, late watergrass (Echinochloa oryzicola); settings: amount of applied herbicide 320 g/ha
Outline: (§1)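 Alluvial soil was flooded to 4 cm depth, weed seeds were sown mixed and 2.5-leaf rice seedlings were transplanted. On sowing day, the compound's emulsion, diluted in water to a set dose, was applied to the water surface. Plants grew at 25–30 °C and were scored 0–5 after three weeks.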

Japanese bulrush = experiment: Test Example 1: herbicidal activity, application before weed generation under submerged conditions (Table 16, symbol B); assay type: in vivo, Japanese bulrush (Schoenoplectus juncoides); settings: amount of applied herbicide 320 g/ha
Outline: as §1

barnyard grass [1] = experiment: Test Example 3: herbicidal effect by foliage application, Wagner pot (Table 18, symbol H); assay type: in vivo, barnyard grass (Echinochloa crus-galli); settings: 320 g/ha
Outline: (§2)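 Plants were sown in alluvial soil held under 0.1–0.5 cm standing water and grown 14 days in a greenhouse at 25–30 °C. An emulsifiable formulation, water-diluted to the set dose, was then sprayed onto the foliage, and effects were scored three weeks later using previously defined criteria.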

Chinese sprangletop = experiment: Test Example 3: herbicidal effect by foliage application, Wagner pot (Table 18, symbol D); assay type: in vivo, chinese sprangletop (Leptochloa chinensis); settings: 320 g/ha
Outline: as §2

rice flat sedge = experiment: Test Example 3: herbicidal effect by foliage application, Wagner pot (Table 18, symbol E); assay type: in vivo, rice flat sedge (Cyperus iria); settings: 320 g/ha
Outline: as §2

southern crabgrass = experiment: Test Example 4: herbicidal effect by soil treatment (Table 19, symbol F); assay type: in vivo, southern crabgrass (Digitaria ciliaris); settings: amount of applied herbicide 320 g/ha
Outline: (§3)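 Scoring uses the grading scale of an earlier test, three weeks post-application. Treatment consists of spraying a diluted emulsion formulation across the surface of sterilized diluvial soil in which seeds are buried near 1.5 cm deep; boxes are kept in a greenhouse between 25° C. and 30° C.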

green foxtail [2] = experiment: Test Example 4: herbicidal effect by soil treatment (Table 19, symbol G); assay type: in vivo, green foxtail (Setaria viridis); settings: amount of applied herbicide 320 g/ha
Outline: as §3

blackgrass [3] = experiment: Test Example 4: herbicidal effect by soil treatment (Table 19, symbol J); assay type: in vivo, blackgrass (Alopecurus myosuroides); settings: amount of applied herbicide 320 g/ha
Outline: as §3

redroot pigweed [4] = experiment: Test Example 4: herbicidal effect by soil treatment (Table 19, symbol N); assay type: in vivo, redroot pigweed (Amaranthus retroflexus); settings: amount of applied herbicide 320 g/ha
Outline: as §3

green foxtail [5] = experiment: Test Example 5: herbicidal effect by foliage application, plastic box (Table 20, symbol G); assay type: in vivo, green foxtail (Setaria viridis); settings: foliage application, 320 g/ha, three weeks after application
Outline: (§4)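 Post-emergence foliar test in sterilized diluvial soil. Compound applied as water-diluted emulsion at a predetermined rate to 14-day-old plants; evaluation at three weeks.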

barnyard grass [6] = experiment: Test Example 5: herbicidal effect by foliage application, plastic box (Table 20, symbol H); assay type: in vivo, barnyard grass (Echinochloa crus-galli); settings: foliage application, 320 g/ha, three weeks after application
Outline: as §4

blackgrass [7] = experiment: Test Example 5: herbicidal effect by foliage application, plastic box (Table 20, symbol J); assay type: in vivo, blackgrass (Alopecurus myosuroides); settings: foliage application, 320 g/ha, three weeks after application
Outline: as §4

Italian ryegrass = experiment: Test Example 5: herbicidal effect by foliage application, plastic box (Table 20, symbol K); assay type: in vivo, Italian ryegrass (Lolium multiflorum); settings: foliage application, 320 g/ha, three weeks after application
Outline: as §4

windgrass = experiment: Test Example 5: herbicidal effect by foliage application, plastic box (Table 20, symbol L); assay type: in vivo, windgrass (Apera spica-venti); settings: foliage application, 320 g/ha, three weeks after application
Outline: as §4

velvetleaf = experiment: Test Example 5: herbicidal effect by foliage application, plastic box (Table 20, symbol M); assay type: in vivo, velvetleaf (Abutilon theophrasti); settings: foliage application, 320 g/ha, three weeks after application
Outline: as §4

redroot pigweed [8] = experiment: Test Example 5: herbicidal effect by foliage application, plastic box (Table 20, symbol N); assay type: in vivo, redroot pigweed (Amaranthus retroflexus); settings: foliage application, 320 g/ha, three weeks after application
Outline: as §4

lambsquarters = experiment: Test Example 5: herbicidal effect by foliage application, plastic box (Table 20, symbol O); assay type: in vivo, lambsquarters (Chenopodium album); settings: foliage application, 320 g/ha, three weeks after application
Outline: as §4

persian speedwell = experiment: Test Example 5: herbicidal effect by foliage application, plastic box (Table 20, symbol R); assay type: in vivo, Persian speedwell (Veronica persica); settings: foliage application, 320 g/ha, three weeks after application
Outline: as §4

| SMILES | Herbicidal effect, A: late watergrass (late watergrass) | Herbicidal effect, B: Japanese bulrush (Japanese bulrush) | herbicidal effect on barnyard grass (H) (barnyard grass [1]) | herbicidal effect on Chinese sprangletop (D) (Chinese sprangletop) | herbicidal effect on rice flat sedge (E) (rice flat sedge) | F: southern crabgrass, herbicidal effect grade (southern crabgrass) | G: green foxtail, herbicidal effect grade (green foxtail [2]) | J: blackgrass, herbicidal effect grade (blackgrass [3]) | N: redroot pigweed, herbicidal effect grade (redroot pigweed [4]) | G: green foxtail, herbicidal effect grade (green foxtail [5]) | H: barnyard grass, herbicidal effect grade (barnyard grass [6]) | J: blackgrass, herbicidal effect grade (blackgrass [7]) | K: Italian ryegrass, herbicidal effect grade (Italian ryegrass) | L: windgrass, herbicidal effect grade (windgrass) | M: velvetleaf, herbicidal effect grade (velvetleaf) | N: redroot pigweed, herbicidal effect grade (redroot pigweed [8]) | O: lambsquarters, herbicidal effect grade (lambsquarters) | R: persian speedwell, herbicidal effect grade (persian speedwell) |
| --- | --- | --- | --- | --- | --- | --- | --- | --- | --- | --- | --- | --- | --- | --- | --- | --- | --- | --- |
| CCCOc1ccc2c(-c3c(O)c(C)nn(C)c3=O)c(-c3ccccc3OC)sc2c1 [3-099] | 5 (Herbicidal rate of 90% or more (almost completely withered)) | 5 (Herbicidal rate of 90% or more (almost completely withered)) | 5 (Herbicidal rate of 90% or more (almost completely withered)) | 5 (Herbicidal rate of 90% or more (almost completely withered)) | 5 (Herbicidal rate of 90% or more (almost completely withered)) | 5 (Herbicidal rate of 90% or more (almost completely withered)) | 5 (Herbicidal rate of 90% or more (almost completely withered)) | 4 (Herbicidal rate of 70% or more and less than 90%) | 5 (Herbicidal rate of 90% or more (almost completely withered)) | 5 (Herbicidal rate of 90% or more (almost completely withered)) | 5 (Herbicidal rate of 90% or more (almost completely withered)) | 5 (Herbicidal rate of 90% or more (almost completely withered)) | 5 (Herbicidal rate of 90% or more (almost completely withered)) | 5 (Herbicidal rate of 90% or more (almost completely withered)) | 5 (Herbicidal rate of 90% or more (almost completely withered)) | 5 (Herbicidal rate of 90% or more (almost completely withered)) | 5 (Herbicidal rate of 90% or more (almost completely withered)) | 5 (Herbicidal rate of 90% or more (almost completely withered)) |
| CCCOc1ccc2c(-c3c(O)c(C)nn(C)c3=O)c(-c3ccccc3OCC)sc2c1 [3-103] | 5 (Herbicidal rate of 90% or more (almost completely withered)) | 5 (Herbicidal rate of 90% or more (almost completely withered)) | 4 (Herbicidal rate of 70% or more and less than 90%) | 5 (Herbicidal rate of 90% or more (almost completely withered)) | 5 (Herbicidal rate of 90% or more (almost completely withered)) | 5 (Herbicidal rate of 90% or more (almost completely withered)) | 4 (Herbicidal rate of 70% or more and less than 90%) | 3 (Herbicidal rate of 40% or more and less than 70%) | 4 (Herbicidal rate of 70% or more and less than 90%) | 5 (Herbicidal rate of 90% or more (almost completely withered)) | 5 (Herbicidal rate of 90% or more (almost completely withered)) | 4 (Herbicidal rate of 70% or more and less than 90%) | 5 (Herbicidal rate of 90% or more (almost completely withered)) | 4 (Herbicidal rate of 70% or more and less than 90%) | 5 (Herbicidal rate of 90% or more (almost completely withered)) | 5 (Herbicidal rate of 90% or more (almost completely withered)) | 4 (Herbicidal rate of 70% or more and less than 90%) | 5 (Herbicidal rate of 90% or more (almost completely withered)) |
| COc1ccccc1-c1sc2cc(OCC(F)F)ccc2c1-c1c(O)c(C)nn(C)c1=O [3-114] | 5 (Herbicidal rate of 90% or more (almost completely withered)) | 5 (Herbicidal rate of 90% or more (almost completely withered)) | 5 (Herbicidal rate of 90% or more (almost completely withered)) | 4 (Herbicidal rate of 70% or more and less than 90%) | 5 (Herbicidal rate of 90% or more (almost completely withered)) | 4 (Herbicidal rate of 70% or more and less than 90%) | 5 (Herbicidal rate of 90% or more (almost completely withered)) | 5 (Herbicidal rate of 90% or more (almost completely withered)) | 5 (Herbicidal rate of 90% or more (almost completely withered)) | 5 (Herbicidal rate of 90% or more (almost completely withered)) | 5 (Herbicidal rate of 90% or more (almost completely withered)) | 5 (Herbicidal rate of 90% or more (almost completely withered)) | 5 (Herbicidal rate of 90% or more (almost completely withered)) | 5 (Herbicidal rate of 90% or more (almost completely withered)) | 5 (Herbicidal rate of 90% or more (almost completely withered)) | 5 (Herbicidal rate of 90% or more (almost completely withered)) | 5 (Herbicidal rate of 90% or more (almost completely withered)) | 5 (Herbicidal rate of 90% or more (almost completely withered)) |
| CCOc1ccccc1-c1sc2cc(OCCOC)ccc2c1-c1c(O)c(C)nn(C)c1=O [3-123] | 5 (Herbicidal rate of 90% or more (almost completely withered)) | 5 (Herbicidal rate of 90% or more (almost completely withered)) | 5 (Herbicidal rate of 90% or more (almost completely withered)) | 5 (Herbicidal rate of 90% or more (almost completely withered)) | 5 (Herbicidal rate of 90% or more (almost completely withered)) | 5 (Herbicidal rate of 90% or more (almost completely withered)) | 5 (Herbicidal rate of 90% or more (almost completely withered)) | 4 (Herbicidal rate of 70% or more and less than 90%) | 5 (Herbicidal rate of 90% or more (almost completely withered)) | 5 (Herbicidal rate of 90% or more (almost completely withered)) | 5 (Herbicidal rate of 90% or more (almost completely withered)) | 5 (Herbicidal rate of 90% or more (almost completely withered)) | 5 (Herbicidal rate of 90% or more (almost completely withered)) | 5 (Herbicidal rate of 90% or more (almost completely withered)) | 5 (Herbicidal rate of 90% or more (almost completely withered)) | 5 (Herbicidal rate of 90% or more (almost completely withered)) | 5 (Herbicidal rate of 90% or more (almost completely withered)) | 5 (Herbicidal rate of 90% or more (almost completely withered)) |

Source: patent US20230085307A1, “PYRIDAZINONE COMPOUND AND HERBICIDE” (NISSAN CHEMICAL CORPORATION, priority 2019, published 2023)
